The values that follow come from patent publication US10221156B2, “Pyridin-3-yl acetic acid derivatives as inhibitors of human immunodeficiency virus replication” (ViiV HEALTHCARE UK (No. 5) LIMITED, priority 2015, dated 2019).

Read-outs that look alike come from different tables or passages of the source.

For the experiment, the system named is recombinant NL-RLuc virus (HIV NL4-3 with Renilla Luciferase) in MT-2 cells. In words: Inhibition of HIV replication (NL-RLuc virus in MT-2 cells, luciferase readout). In kind it is cell-based. The text has this:
Inhibition of HIV Replication:
A recombinant NL-RLuc proviral clone was constructed in which a section of the nef gene from NL4-3 was replaced with the Renilla Luciferase gene. This virus is fully infectious and can undergo multiple cycles of replication in cell culture. In addition, the luciferous reporter provides a simple and easy method for quantitating the extent of virus growth and consequently, the antiviral activity of test compounds. The plasmid pNLRLuc contains the proviral NL-Rluc DNA cloned into pUC18 at the PvuII site. The NL-RLuc virus was prepared by transfection of 293T cells with the plasmid pNLRLuc. Transfections were performed using the LipofectAMINE PLUS kit from Invitrogen (Carlsbad, Calif.) according to the manufacturer and the virus generated was titered in MT-2 cells. For susceptibility analyses, the titrated virus was used to infect MT-2 cells in the presence of compound, and after 5 days of incubation, cells were processed and quantitated for virus growth by the amount of expressed luciferase. Assay media was RPMI 1640 supplemented with 10% heat inactivated fetal bovine serum (FBS), 100 units/ml penicillin G/100 units/ml streptomycin, 10 mM HEPES buffer pH 7.55 and 2 mM L-glutamine. The results from at least 2 experiments were used to calculate the EC50 values. Luciferase was quantitated using the Dual Luciferase kit from Promega (Madison, Wis.). Susceptibility of viruses to compounds was determined by incubation in the presence of serial dilutions of the compound. The 50% effective concentration (EC50) was calculated by using the exponential form of the median effect equation where (Fa)=1/[1+(ED50/drug conc.)^m] (Johnson V A, Byington R T. Infectivity Assay. In Techniques in HIV Research. ed. Aldovini A, Walker B D. 71-76. New York: Stockton Press. 1990). Activity equal to A refers to a compound having an EC50≤100 nM, while B and C denote compounds having an EC50 between 100 nM and 1 uM (B) or >1 uM (C).

As for `Cc1nc(C)c([C@H](OC(C)(C)C)C(=O)O)c(N2CCC(C)(C)CC2)c1-c1ccc(OCCN2CCN(C)CC2)cc1` [Example 1, (S)-2-(tert-Butoxy)-2-(4-(4,4-dimethylpiperidin-1-yl)-2,6-dimethyl-5-(4-(2-(4-methylpiperazin-1-yl)ethoxy)phenyl)pyridin-3-yl)acetic Acid], the EC50 was 0.1 to 1 µM (MT2, 120 h, read-out: Activity) and 0.117 µM (MT2, 120 h, read-out: EC50 μM).

With `Cc1nc(C)c([C@H](OC(C)(C)C)C(=O)O)c(N2CCC(C)(C)CC2)c1-c1ccc(OCCC2CCCCC2)cc1` [Example 2, (S)-2-(tert-Butoxy)-2-(5-(4-(2-cyclohexylethoxy)phenyl)-4-(4,4-dimethylpiperidin-1-yl)-2,6-dimethylpyridin-3-yl)acetic Acid], the EC50 by setting is: (MT2, 120 h, read-out: Activity) < 0.1 µM; (MT2, 120 h, read-out: EC50 μM) 0.034 µM. As to `Cc1nc(C)c([C@H](OC(C)(C)C)C(=O)O)c(N2CCC(C)(C)CC2)c1-c1ccc(OC2CCOc3ccccc32)cc1` (stereo partly drawn) [Example 3, (2S)-2-(tert-Butoxy)-2-(5-(4-(chroman-4-yloxy)phenyl)-4-(4,4-dimethylpiperidin-1-yl)-2,6-dimethylpyridin-3-yl)acetic Acid], the EC50 (MT2, 120 h, read-out: Activity) is < 0.1 µM. For the molecule `Cc1nc(C)c([C@H](OC(C)(C)C)C(=O)O)c(N2CCC(C)(C)CC2)c1-c1ccc(OCCN2CCCCC2)cc1` [Example 4, (S)-2-(tert-Butoxy)-2-(4-(4,4-dimethylpiperidin-1-yl)-2,6-dimethyl-5-(4-(2-(piperidin-1-yl)ethoxy)phenyl)pyridin-3-yl)acetic Acid], the EC50 (MT2, 120 h, read-out: Activity) is < 0.1 µM. In the case of `Cc1nc(C)c([C@H](OC(C)(C)C)C(=O)O)c(N2CCC(C)(C)CC2)c1-c1ccc(OCCN2CCOCC2)cc1` [Example 5, (S)-2-(tert-Butoxy)-2-(4-(4,4-dimethylpiperidin-1-yl)-2,6-dimethyl-5-(4-(2-morpholinoethoxy)phenyl)pyridin-3-yl)acetic Acid], the EC50 was < 0.1 µM (MT2, 120 h, read-out: Activity) and 0.021 µM (MT2, 120 h, read-out: EC50 μM). On to `COc1cccc(C2CCN(CCOc3ccc(-c4c(C)nc(C)c([C@H](OC(C)(C)C)C(=O)O)c4N4CCC(C)(C)CC4)cc3)CC2)c1` [Example 6, (S)-2-(tert-Butoxy)-2-(4-(4,4-dimethylpiperidin-1-yl)-5-(4-(2-(4-(3-methoxyphenyl)piperidin-1-yl)ethoxy)phenyl)-2,6-dimethylpyridin-3-yl)acetic Acid], for which the EC50 (MT2, 120 h, read-out: Activity) is < 0.1 µM. Regarding `Cc1nc(C)c([C@H](OC(C)(C)C)C(=O)O)c(N2CCC(C)(C)CC2)c1-c1ccc(OCCN2CCC(C)CC2)cc1` [Example 7, (S)-2-(tert-Butoxy)-2-(4-(4,4-dimethylpiperidin-1-yl)-2,6-dimethyl-5-(4-(2-(4-methylpiperidin-1-yl)ethoxy)phenyl)pyridin-3-yl)acetic Acid], for the setting “MT2, 120 h, read-out: Activity”, the EC50 was < 0.1 µM.

Take `Cc1nc(C)c([C@H](OC(C)(C)C)C(=O)O)c(N2CCC(C)(C)CC2)c1-c1ccc(OCC2CCC(C)CC2)cc1` (stereo partly drawn) [Example 8, (S)-2-(tert-Butoxy)-2-(4-(4,4-dimethylpiperidin-1-yl)-2,6-dimethyl-5-(4-((4-methylcyclohexyl)methoxy)phenyl)pyridin-3-yl)acetic Acid]: the EC50 (MT2, 120 h, read-out: Activity) is < 0.1 µM. Regarding `Cc1nc(C)c([C@H](OC(C)(C)C)C(=O)O)c(N2CCC(C)(C)CC2)c1-c1ccc(OCC2CCC(C)CC2)cc1` (stereo partly drawn) [Example 9, (S)-2-(tert-Butoxy)-2-(4-(4,4-dimethylpiperidin-1-yl)-2,6-dimethyl-5-(4-((4-methylcyclohexyl)methoxy)phenyl)pyridin-3-yl)acetic Acid], the EC50 ({}) was < 0.1 µM.

`Cc1nc(C)c([C@H](OC(C)(C)C)C(=O)O)c(N2CCC(C)(C)CC2)c1-c1ccc(OCCN2CCN(Cc3ccc(F)cc3)CC2)cc1` [Example 10, (S)-2-(tert-Butoxy)-2-(4-(4,4-dimethylpiperidin-1-yl)-5-(4-(2-(4-(4-fluorobenzyl)piperazin-1-yl)ethoxy)phenyl)-2,6-dimethylpyridin-3-yl)acetic Acid]: for the setting “MT2, 120 h, read-out: Activity”, the EC50 is < 0.1 µM.

On to `Cc1nc(C)c([C@H](OC(C)(C)C)C(=O)O)c(N2CCC(C)(C)CC2)c1-c1ccc(OCC2(c3ccc(F)cc3)CC2)cc1` [Example 11], for which the EC50 (MT2, 120 h, read-out: Activity) was < 0.1 µM and the EC50 (MT2, 120 h, read-out: EC50 μM) was 0.003 µM. `Cc1nc(C)c([C@H](OC(C)(C)C)C(=O)O)c(N2CCC(C)(C)CC2)c1-c1ccc(OC2Cc3ccccc3C2)cc1` [Example 12, (S)-2-(tert-Butoxy)-2-(5-(4-((2,3-dihydro-1H-inden-2-yl)oxy)phenyl)-4-(4,4-dimethylpiperidin-1-yl)-2,6-dimethylpyridin-3-yl)acetic Acid]: the EC50 (MT2, 120 h, read-out: Activity) is < 0.1 µM. For the molecule `Cc1nc(C)c([C@H](OC(C)(C)C)C(=O)O)c(N2CCC(C)(C)CC2)c1-c1ccc(OCCN2CCSCC2)cc1` [Example 13, (S)-2-(tert-Butoxy)-2-(4-(4,4-dimethylpiperidin-1-yl)-2,6-dimethyl-5-(4-(2-thiomorpholinoethoxy)phenyl)pyridin-3-yl)acetic Acid], the EC50 runs as follows: (MT2, 120 h, read-out: Activity) < 0.1 µM; (MT2, 120 h, read-out: EC50 μM) 0.003 µM.

As for `Cc1nc(C)c([C@H](OC(C)(C)C)C(=O)O)c(N2CCC(C)(C)CC2)c1-c1ccc(OCCN2CCS(=O)(=O)CC2)cc1` [Example 14, (S)-2-(tert-Butoxy)-2-(4-(4,4-dimethylpiperidin-1-yl)-5-(4-(2-(1,1-dioxidothiomorpholino)ethoxy)phenyl)-2,6-dimethylpyridin-3-yl)acetic Acid], the EC50 (MT2, 120 h, read-out: Activity) is < 0.1 µM. For the molecule `Cc1nc(C)c([C@H](OC(C)(C)C)C(=O)O)c(N2CCC(C)(C)CC2)c1-c1ccc(OC2CC(c3ccc(F)cc3)C2)cc1` (stereo partly drawn) [Example 15, (S)-2-(tert-Butoxy)-2-(4-(4,4-dimethylpiperidin-1-yl)-5-(4-(3-(4-fluorophenyl)cyclobutoxy)phenyl)-2,6-dimethylpyridin-3-yl)acetic Acid], the EC50 (MT2, 120 h, read-out: Activity) was < 0.1 µM. Turning to `Cc1nc(C)c([C@H](OC(C)(C)C)C(=O)O)c(N2CCC(C)(C)CC2)c1-c1ccc(OC2CCC(c3ccc(F)cc3)CC2)cc1` (stereo partly drawn) [Example 16, (S)-2-(tert-Butoxy)-2-(4-(4,4-dimethylpiperidin-1-yl)-5-(4-((4-(4-fluorophenyl)cyclohexyl)oxy)phenyl)-2,6-dimethylpyridin-3-yl)acetic Acid], the EC50 (MT2, 120 h, read-out: Activity) is < 0.1 µM. `Cc1nc(C)c([C@H](OC(C)(C)C)C(=O)O)c(N2CCC(C)(C)CC2)c1-c1ccc(OC2CCCC2c2ccc(F)cc2)cc1` (stereo partly drawn) [Example 17, (2S)-2-(tert-Butoxy)-2-(4-(4,4-dimethylpiperidin-1-yl)-5-(4-((2-(4-fluorophenyl)cyclopentyl)oxy)phenyl)-2,6-dimethylpyridin-3-yl)acetic acid]: the EC50 reads like this: (MT2, 120 h, read-out: Activity) < 0.1 µM; (MT2, 120 h, read-out: EC50 μM) 0.012 µM. Turning to `Cc1nc(C)c([C@H](OC(C)(C)C)C(=O)O)c(N2CCC(C)(C)CC2)c1-c1ccc(OC2CCCC2c2ccc(F)cc2)cc1` (stereo partly drawn) [Example 18, (2S)-2-(tert-Butoxy)-2-(4-(4,4-dimethylpiperidin-1-yl)-5-(4-((2-(4-fluorophenyl)cyclopentyl)oxy)phenyl)-2,6-dimethylpyridin-3-yl)acetic acid], the EC50 ({}) is < 0.1 µM. Regarding `Cc1nc(C)c([C@H](OC(C)(C)C)C(=O)O)c(N2CCC(C)(C)CC2)c1-c1ccc(OC2COCC2c2ccc(F)cc2)cc1` (stereo partly drawn) [Example 19, (2S)-2-(tert-Butoxy)-2-(4-(4,4-dimethylpiperidin-1-yl)-5-(4-((4-(4-fluorophenyl)tetrahydrofuran-3-yl)oxy)phenyl)-2,6-dimethylpyridin-3-yl)acetic acid], the EC50 (MT2, 120 h, read-out: Activity) is < 0.1 µM. Regarding `Cc1nc(C)c([C@H](OC(C)(C)C)C(=O)O)c(N2CCC(C)(C)CC2)c1-c1ccc(OC2COCC2c2ccc(F)cc2)cc1` (stereo partly drawn) [Example 20, (2S)-2-(tert-Butoxy)-2-(4-(4,4-dimethylpiperidin-1-yl)-5-(4-((4-(4-fluorophenyl)tetrahydrofuran-3-yl)oxy)phenyl)-2,6-dimethylpyridin-3-yl)acetic acid], the EC50 ({}) is < 0.1 µM.
